Results on 19 compounds are retold here after US20240254083A1, “HETEROCYCLIC TRPML1 AGONISTS AND USES THEREOF” (Libra Therapeutics, Inc., priority 2021, published 2024).

For assay [1], the target named is T1, hTRPML1 (Homo sapiens, UniProt Q9GZU1).
T1 construct: expressed in transfected cells
As to the kind of experiment: Cellular TRPML1 assay (FLIPR, GCaMP6f calcium read-out). The following applies: HEK T-REx/GCaMP6f/TRPML1 cells, FLIPR TETRA, kinetic response over 300 seconds; read-out: hTRPML1 FLIPR pEC50 (converted). Type of assay: cell-based. As for the experimental part:
Buffers and reagents • PBS (D-PBS without calcium and magnesium; EuroClone) • Trypsin (Trypsin 0.05%, EDTA 0.02% in PBS; EuroClone) • DMSO (Sigma) • Ca^2+ free Tyrode's buffer: in-house solution (130 mM NaCl, 5 mM KCl, 1 mM MgCl2, 5 mM NaHCO3, 20 mM HEPES in water at pH 7.4; sterile filtered). • Opti-MEM (Gibco) • Agonist: ML-SA1 (Sigma); stock: 60 mM in DMSO, stored at −20° C. • Blocker: ML-SI3 (in house synthesis); stock: 20 mM in DMSO, stored at −20° C.
Cell line • The final clone for the TRPML1 assay is HEK T-REx/GCaMP6f/TRPML1. • GCaMP6f is a genetically encoded calcium indicator that is stably expressed in this cell line and used as a fluorescent read-out.
Cells are seeded at 15000 cells/well either in 25 µl/well of growth medium or in 20 μl/well of Optimem+0.5% FBS without selection antibiotics. Twenty-four hours later, cells are assayed for the response to various compounds using the Ca^2+ sensitive GCaMP6f protein stably expressed in the cells as readout.
The experiment is performed in a 384-well format according to the following procedures for either Ca^2+ free or Optimem conditions: • Ca^2+ free condition (in absence of extracellular Ca^2+): • 24 h after seeding, pre-incubate the cells at room temperature for about 10′. • Then remove the culture medium and replace it with 20 μL of Ca^2+ free Tyrode's buffer. • Start the experiment at the FLIPR^TETRA by injecting 10 μL/w of 3× concentrated test compounds and controls in Ca^2+ free Tyrode's buffer. Monitor the kinetic response over a period of 300 seconds. • Final DMSO concentration: 0.5% • Optimem condition (in presence of extracellular Ca^2+): • 24 h after seeding, pre-incubate the cells at room temperature for about 10′. • Start the experiment at the FLIPR^TETRA by injecting 10 μL/w of 3× concentrated test compounds and controls in Ca^2+ free Tyrode's buffer. Monitor the kinetic response over a period of 300 seconds. • Final DMSO concentration: 0.5%
Data from FLIPR^TETRA measurements are analyzed with the Genedata Screener© software.

Assay [2] concerns autophagy reporter Rosella stably expressed in HeK293 cell line. As to the kind of experiment: Autophagy assay (Rosella-LC3 reporter, imaging). Type of assay: cell-based. The following applies: Homo sapiens; HeK293 cells with Rosella reporter (LC3 tag), 18 hours incubation, reference Torin-1; read-out: Autophagy pEC50 (converted). As for the experimental part:
• Tyrode's buffer with 2 mM Ca^2+ in-house solution (130 mM NaCl, 5 mM KCl, 2 mM CaCl2), 1 mM MgCl2, 5 mM NaHCO3, 20 mM HEPES in water at pH 7.4; sterile filtered) • DMSO (Sigma) • Bis-benzimide H 33342 trihydrochloride (Hoechst 33342; Sigma-Aldrich) • Reference molecule (agonist): Torin-1, (#4247, Tocris) stock 1.2 mM in DMSO, stored at −20° C. Reporter of Autophagy and Cell line
Reporter Rosella: a fluorescent-based chimera constitutes by two fluorescent proteins, Green and Red variants, acting as a bimodal indicator of pH. The green fluorescent variant of the constructs is pH sensitive (pKa=6.9) while the red variant is not pH sensitive and it is used as reference. The reporter is fused to sequence for autophagosome localization (LC3 tag).
The reporter Rosella have been stably expressed in HeK293 cell line and used as read-out.
Experiments have been performed in 384 MTP poly-lysine coated well format. Cells have been seeded in 384-w at a density of 6000 cells/well in 25 μl/well complete growth medium without antibiotics. Twenty-four hours later, cells have been treated with compounds and incubated for further 18 hours. Then the cells have been imaged and assayed for the response to various compounds using the reporter for autophagy expressed in the cells as readout.
The experiments were performed in a 384-well format according to the following procedure: • 24 h after seeding, cells were incubated with compounds at the desired concentration, and with the reference molecule (agonist) Torin-1 at a top concentration of 1 μM (max signal), for 18 hours at 37° C. and 5% CO2. The final percentage of DMSO was 0.3% in all the conditions. • Then the culture medium was carefully removed to avoid cells detachment and to discard red phenol into the medium and that can interfere with the measurements. • Staining of the nuclei was obtained by incubating the cells with 8 μM/well of Hoechst 3342 in standard Tyrode's buffer for 20 min at RT • Then the cells were carefully washed two times with standard Tyrode's buffer • Finally, the samples were acquired by recording three fluorescence emission channels (green, red and blue) at 20× magnification and with at least 3-4 fields of view per well in an Operetta CLS microscope (PerkinElmer). • Image analysis was performed by using Harmony software (PerkinElmer). The image analysis involved the following steps: flat-field illumination correction, nuclei segmentation, cell segmentations and identification of vesicles/granules within the cytosol compartments and representing the autophagy vesicles. Measurements of signal intensity ratio (Green to Red) and number of autophagy vesicles per cells were used to obtain information on the effects of compounds on the autophagy flux. • Data from image analysis measurements were finally loaded and analyzed for normalization and fitting procedures in Genedata Screener© software.

T1 sequence (Q9GZU1 whole entry): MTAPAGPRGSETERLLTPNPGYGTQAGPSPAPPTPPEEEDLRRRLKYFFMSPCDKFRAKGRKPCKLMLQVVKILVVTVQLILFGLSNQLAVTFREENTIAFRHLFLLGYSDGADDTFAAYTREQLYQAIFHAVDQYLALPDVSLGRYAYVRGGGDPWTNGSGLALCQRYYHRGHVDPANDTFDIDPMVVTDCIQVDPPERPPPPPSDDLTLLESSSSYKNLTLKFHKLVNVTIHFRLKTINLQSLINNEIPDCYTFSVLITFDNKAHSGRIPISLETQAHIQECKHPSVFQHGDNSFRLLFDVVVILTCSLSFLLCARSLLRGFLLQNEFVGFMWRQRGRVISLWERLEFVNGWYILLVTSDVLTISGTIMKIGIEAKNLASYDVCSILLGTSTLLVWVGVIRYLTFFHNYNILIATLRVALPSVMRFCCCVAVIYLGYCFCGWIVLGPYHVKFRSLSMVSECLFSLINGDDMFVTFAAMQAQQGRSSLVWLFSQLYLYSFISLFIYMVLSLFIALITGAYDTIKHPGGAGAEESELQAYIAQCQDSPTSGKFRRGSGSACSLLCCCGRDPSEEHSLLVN

On to `CC(C)(C)OC(=O)N1CCN(c2ccccc2NS(=O)(=O)c2ccc(C3CC3)cc2)CC1` [Example 23, tert-butyl 4-(2-((4-cyclopropylphenyl)sulfonamido)phenyl) piperazine-1-carboxylate], for which the results for the EC50 in assay [1] and in assay [2] were 1 to 3.16 µM and greater than 3.16 µM, respectively.

On to `CN(C)S(=O)(=O)c1ccc(S(=O)(=O)Nc2ccccc2N2CCCC(OCc3ccccc3)C2)cc1` (racemic) [Example 25, N^1-(2-(3-(benzyloxy)piperidin-1-yl)phenyl)-N^4,N^4-dimethylbenzene-1,4-disulfonamide], for which the EC50 in assay [1] and in assay [2] was 1 to 3.16 µM throughout.

Turning to `C#CCC1CN(c2ccccc2NS(=O)(=O)c2ccc(S(=O)(=O)N(C)C)cc2)CCO1` (stereo not drawn) [Example 33, N^1,N^1-dimethyl-N^4-(2-(2-(prop-2-yn-1-yl)morpholino)phenyl)benzene-1,4-disulfonamide], the EC50 was greater than 3.16 µM in assay [1] and less than 1 µM in assay [2].

With `CN(C)S(=O)(=O)c1ccc(S(=O)(=O)Nc2ccccc2N2CCCC(Oc3ccccc3)C2)cc1` (racemic) [Example 28, N^1,N^1-dimethyl-N^4-(2-(3-phenoxypiperidin-1-yl)phenyl)benzene-1,4-disulfonamide], the EC50 in assay [1] was 1 to 3.16 µM; in assay [2], less than 1 µM.

`CCS(=O)(=O)c1ccc(S(=O)(=O)Nc2ccccc2N2CCC(Oc3ccccc3)CC2)cc1` [Example 6, 4-(ethylsulfonyl)-N-(2-(4-phenoxypiperidin-1-yl)phenyl)benzenesulfonamide]: the EC50 in assay [1] and in assay [2] was greater than 3.16 µM each time.

For `CN(C)S(=O)(=O)c1ccc(C(=O)N(c2ccccc2N2CCC(Oc3ccccc3)CC2)C2CCCC2)cc1` [Example 1, N-cyclopentyl-4-(N,N-dimethylsulfamoyl)-N-(2-(4-phenoxypiperidin-1-yl)phenyl)benzamide], the EC50 in assay [1] is 1 to 3.16 µM; in assay [2], less than 1 µM.

As for `CN(C)S(=O)(=O)c1ccc(S(=O)(=O)Nc2ccccc2N2CCOC(C3CCC3)C2)cc1` (stereo not drawn) [Example 32, N^1-(2-(2-cyclobutylmorpholino)phenyl)-N^4,N^4-dimethylbenzene-1,4-disulfonamide], the results for the EC50 in assay [1] and in assay [2] were greater than 3.16 µM and 1 to 3.16 µM, respectively.

As for `CN(C)S(=O)(=O)c1ccc(S(=O)(=O)Nc2ccccc2N2CCCC(COc3ccccc3)C2)cc1` (racemic) [Example 34, N^1,N^1-dimethyl-N^4-(2-(3-(phenoxymethyl)piperidin-1-yl)phenyl)benzene-1,4-disulfonamide], the EC50 in assay [1] and in assay [2] was 1 to 3.16 µM each time.

As to `CN(C)S(=O)(=O)c1ccc(C(=O)N(c2ccccc2N2CCC(Oc3ccccc3)CC2)C2CCC2)cc1` [Example 2, N-cyclobutyl-4-(N,N-dimethylsulfamoyl)-N-(2-(4-phenoxypiperidin-1-yl)phenyl)benzamide], the values for the EC50 in assay [1] and in assay [2] were 1 to 3.16 µM and less than 1 µM, respectively.

Turning to `O=S(=O)(Nc1cccc(F)c1N1CCC(Oc2ccccn2)CC1)c1ccc(C(F)(F)F)cc1` [Example 10, N-(3-fluoro-2-(4-(pyridin-2-yloxy)piperidin-1-yl)phenyl)-4-(trifluoromethyl)benzenesulfonamide], the EC50 in assay [1] and in assay [2] was 1 to 3.16 µM throughout.

On to `CN(C)S(=O)(=O)c1ccc(S(=O)(=O)Nc2ccccc2N2CCC(C)(Oc3ccccn3)CC2)cc1` [Example 40, N^1,N^1-dimethyl-N^4-(2-(4-methyl-4-(pyridin-2-yloxy)piperidin-1-yl)phenyl)benzene-1,4-disulfonamide], for which the results for the EC50 in assay [1] and in assay [2] were greater than 3.16 µM and less than 1 µM, respectively.

For `Cc1ccc(S(=O)(=O)Nc2ccccc2N2CCN(C(=O)OC(C)(C)C)CC2)cc1F` [Example 19, tert-butyl 4-(2-((3-fluoro-4-methylphenyl)sulfonamido)phenyl)piperazine-1-carboxylate], the EC50 in assay [1] was 1 to 3.16 µM; in assay [2] it was greater than 3.16 µM.

`CC(C)(C)OC(=O)N1CCN(c2ccccc2NS(=O)(=O)c2ccc(C(F)(F)F)cc2)CC1` [Example 17, tert-butyl 4-(2-((4-(trifluoromethyl)phenyl)sulfonamido)phenyl) piperazine-1-carboxylate]: the values for the EC50 in assay [1] and in assay [2] were 1 to 3.16 µM and less than 1 µM, respectively.

As to `Cc1ccc(S(=O)(=O)Nc2c(C)cccc2N2CCN(C(=O)OC(C)(C)C)CC2)cc1` [Example 22, tert-butyl 4-(3-methyl-2-((4-methylphenyl)sulfonamido)phenyl)piperazine-1-carboxylate], the EC50 in assay [1] is 1 to 3.16 µM; in assay [2], greater than 3.16 µM.

`CN(C)S(=O)(=O)c1ccc(S(=O)(=O)Nc2cccc(F)c2N2CCC(Oc3ccccn3)CC2)cc1` [Example 8, N^1-(3-fluoro-2-(4-(pyridin-2-yloxy)piperidin-1-yl)phenyl)-N^4,N^4-dimethylbenzene-1,4-disulfonamide]: the EC50 in assay [1] and in assay [2] was less than 1 µM in each case.

As to `CN(C)S(=O)(=O)c1ccc(S(=O)(=O)Nc2ccccc2N2CCC(C)(c3ccccc3)CC2)cc1` [Example 38, N^1,N^1-dimethyl-N^4-(2-(4-methyl-4-phenylpiperidin-1-yl)phenyl)benzene-1,4-disulfonamide], the figures for the EC50 in assay [1] and in assay [2] were 1 to 3.16 µM and less than 1 µM, respectively.

For the compound `CN(C)S(=O)(=O)c1ccc(S(=O)(=O)Nc2ccccc2N2CCOC(C3CC3)C2)cc1` (stereo not drawn) [Example 31, N^1-(2-(2-cyclopropylmorpholino)phenyl)-N^4, N^4-dimethylbenzene-1,4-disulfonamide], the EC50 in assay [1] and in assay [2] was greater than 3.16 µM in each case.

For `CCS(=O)(=O)c1ccc(S(=O)(=O)Nc2cccc(F)c2N2CCC(Oc3ccccn3)CC2)cc1` [Example 15, 4-(ethylsulfonyl)-N-(3-fluoro-2-(4-(pyridin-2-yloxy)piperidin-1-yl)phenyl)benzenesulfonamide], the EC50 in assay [1] was 1 to 3.16 µM.

With `CN(C)S(=O)(=O)c1ccc(C(=O)N(c2ccccc2N2CCC(Oc3ccccc3)CC2)C2CC2)cc1` [Example 5, N-cyclopropyl-4-(N,N-dimethylsulfamoyl)-N-(2-(4-phenoxypiperidin-1-yl)phenyl)benzamide], the EC50 in assay [1] was greater than 3.16 µM.
